Data on two compounds can be found in ChEMBL document CHEMBL1137807, “A novel dimeric diterpene from Salvia prionitis” (J Nat Prod, 2001).

Assay [1] has as its system HL-60. Description: Antitumor activity against human HL60 cells. The class given is functional, cell-based.
Assay [2] concerns Bel-7402. The experiment in a line: Antitumor activity against human Bel7402 cells. It counts as functional, cell-based.

Activity calls are given as the source filed them. The calls are words filed in the database; no cut-off is given here.

Turning to `CC(C)c1cc2c(c(O)c1O)[C@@]1(C)CCCC(C)(C)C1=CC2=O`, the outcome in assay [1] and in assay [2] was Active.

On to `CC(C)C1=CC2=C[C@H]3Oc4c(c(C(C)C)cc5c4[C@]4(C)CCCC(C)(C)C4=CC5=O)O[C@]34C(C)(C)CCC[C@@]4(C)C2=C(O)C1=O`, for which the outcome in assay [1] and in assay [2] was inactive.
